# According to the supplement of paper PMC4862054:
# Values joined by “and” are separate entries in the source; they are usually repeats but may differ in a detail not shown here. Identical values can stand only once.
# How the values were obtained:
# Settings in all cases: incubation time: 72 h
# [1] = test system: HCC1937; assay: normalised response (% of control), CellTiter-Glo; higher = more viable cells (100 = DMSO, 0 = benzethonium chloride kill control)
# Method: (§1)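 DSRT, 72 h incubation, CellTox Green / CellTiter-Glo readout. Signal is normalised to DMSO and benzethonium chloride controls. Value is the normalised response at the highest dose.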
# [2] = test system: HCC1599; assay: as above
# Method: as §1
# [3] = test system: HDQ-P1; assay: as above
# Method: as §1
# [4] = test system: DU-4475; assay: as above
# Method: as §1
# [5] = test system: MDA-MB-436; assay: as above
# Method: as §1
# [6] = test system: CAL-120; assay: as above
# Method: as §1
# [7] = test system: BT-549; assay: as above
# Method: as §1
# [8] = test system: BT-474; assay: as above
# Method: as §1
# [9] = test system: CAL-148; assay: as above
# Method: as §1
# [10] = test system: CAL-85-1; assay: as above
# Method: as §1
# [11] = test system: HCC1143; assay: as above
# Method: as §1
# [12] = test system: MCF-10A; assay: as above
# Method: as §1
# [13] = test system: SK-BR-3; assay: as above
# Method: as §1
# [14] = test system: MDA-MB-453; assay: as above
# Method: as §1
# [15] = test system: MDA-MB-468; assay: as above
# Method: as §1
# [16] = test system: CAL-51; assay: as above
# Method: as §1
# [17] = test system: MFM-223; assay: as above
# Method: as §1
# [18] = test system: MDA-MB-231; assay: as above
# Method: as §1
# [19] = test system: Hs578T; assay: as above
# Method: as §1
# [20] = test system: HDQ-P1; assay: normalised viability (% of control), CellTiter-Blue; higher = more viable cells (about 100 = DMSO control)
# Method: (§2)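 DSRT, CellTiter-Blue viability, 72 h incubation. Signal is normalised to DMSO and benzethonium chloride controls. Value is the normalised response at dose 9.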
# [21] = test system: DU-4475; assay: as above
# Method: as §2
# [22] = test system: CAL-148; assay: as above
# Method: as §2
# [23] = test system: CAL-85-1; assay: as above
# Method: as §2
# [24] = test system: MDA-MB-453; assay: as above
# Method: as §2
# [25] = test system: CAL-51; assay: as above
# Method: as §2
SMILES,normalised response [1],normalised response [2],normalised response [3],normalised response [4],normalised response [5],normalised response [6],normalised response [7],normalised response [8],normalised response [9],normalised response [10],normalised response [11],normalised response [12],normalised response [13],normalised response [14],normalised response [15],normalised response [16],normalised response [17],normalised response [18],normalised response [19],normalised viability [20],normalised viability [21],normalised viability [22],normalised viability [23],normalised viability [24],normalised viability [25]
CC(C)C(=O)Nc1ccc([N+](=O)[O-])c(C(F)(F)F)c1 [Flutamide] (10000 nM),92.7%,90%,92.4%,97.7%,98.4%,104%,94.1%,95.6%,101%,90.1%,95%,96.7%,105%,96.1%,93.9%,89.6%,90.9%,93.3%,101%,124%,87.4%,106%,84.8%,91.7%,98.3%
NC(=O)NO [Hydroxyurea] (100000 nM),95%,96.4%,97%,102%,103%,96.9%,77.4%,97.2%,102%,101%,104%,105%,110%,106%,102%,29%,104%,98.5%,104%,123%,121%,119%,90%,91.5%,100%
O=NN(CCCl)C(=O)NC1CCCCC1 [Lomustine] (10000 nM),99%,104%,99.5%,99.7%,105%,98.5%,104%,97.2%,97%,99.9%,96.2%,104%,101%,107%,101%,110%,106%,95.9%,103%,111%,91.5%,99.1%,77.4%,47.5%,104%
Cn1nnc2c(C(N)=O)ncn2c1=O [Temozolomide] (10000 nM),91.6%,108%,95.1%,91.1%,98%,95.2%,100%,91.2%,95.8%,99.2%,95.1%,96.2%,93.9%,97.9%,99.1%,106%,101%,91.2%,95.7%,31.3%,116%,116%,107%,100%,87.8%
CC/C(=C(\c1ccccc1)c1ccc(OCCN(C)C)cc1)c1ccccc1 [Tamoxifen] (10000 nM),51.8%,73%,99.1%,85.7%,86.9%,90%,78.2%,69.3%,77.7%,81.6%,95.7%,74.3%,53.4%,23.5%,77%,71.7%,58.2%,60.8%,87.8%,78.5%,108%,120%,102%,17.4%,90.2%
CN1CCN(c2nc(C3=C(c4c[nH]c5ccccc45)C(=O)NC3=O)c3ccccc3n2)CC1 [Sotrastaurin] (10000 nM),118%,82.8%,86.2%,76.4%,107%,82.7%,97.9%,103%,84.3%,112%,94.2%,94.2%,67.5%,108%,78.6%,92.5%,67.4%,107%,108%,124%,77.1%,127%,124%,75.6%,108%
CC(C)C[C@H](NC(=O)[C@H](CCc1ccccc1)NC(=O)CN1CCOCC1)C(=O)N[C@@H](Cc1ccccc1)C(=O)N[C@@H](CC(C)C)C(=O)[C@@]1(C)CO1 [Carfilzomib] (1000 nM),2.47%,8.99%,0.05%,7.95%,2.1%,1.88%,2.23%,6.38%,7.77%,1.03%,5.78%,0.46%,2.94%,14.3%,1.29%,1.12%,6.19%,0.28%,0.58%,0.68%,2.97%,2.83%,2.67%,12.3%,1.6%
Nc1nc(Cl)nc2c1ncn2[C@@H]1O[C@H](CO)[C@@H](O)[C@@H]1F [Clofarabine] (10000 nM),84.2%,29.1%,73.7%,49.3%,21.4%,69.8%,27.4%,66.3%,40.5%,35.4%,40.3%,56.9%,36.8%,75.3%,16.4%,17%,92.3%,73%,68.2%,91.7%,14%,35.5%,51.2%,41.2%,12.4%
C[C@@H]1C[C@H]2[C@@H]3CCC4=CC(=O)C=C[C@]4(C)[C@@]3(F)[C@@H](O)C[C@]2(C)[C@@]1(O)C(=O)CO [Dexamethasone] (10000 nM),98.4%,83.5%,82%,101%,103%,70.3%,96.7%,137%,98.2%,124%,99.6%,79.9%,86.9%,78.7%,95.2%,132%,94.2%,149%,105%,125%,104%,109%,105%,75.3%,97.9%
CCN(CC)CCOc1ccc(C(=C(Cl)c2ccccc2)c2ccccc2)cc1 [Clomifene] (10000 nM),10.1%,4.3%,82.1%,44.1%,87.6%,90.2%,71.3%,8.15%,74.4%,44.9%,95.4%,46.1%,27.5%,14.7%,65%,98.5%,26.5%,4.7%,26.6%,38.8%,48.2%,93.4%,42.8%,7.39%,84.7%
CC[C@@H]1C(=O)N(C)c2cnc(Nc3ccc(C(=O)N[C@H]4CC[C@H](N5CCN(CC6CC6)CC5)CC4)cc3OC)nc2N1C(C)C [Volasertib] (1000 nM),66.8%,28.3%,64.7%,66.2%,65.6%,49.1%,29.1%,66.4%,79.9%,48.6%,41.3%,46.9%,27.2%,62.4%,48%,26.9%,51.2%,73%,25.4%,87.8%,35.1%,31.4%,61.5%,30.7%,7.23%
Cc1c(N)nc([C@H](CC(N)=O)NC[C@H](N)C(N)=O)nc1C(=O)N[C@H](C(=O)N[C@H](C)[C@@H](O)[C@H](C)C(=O)N[C@H](C(=O)NCCc1nc(-c2nc(C(=O)NCCC[S+](C)C)cs2)cs1)[C@@H](C)O)[C@@H](OC1OC(CO)C(O)C(O)C1OC1OC(CO)C(O)C(OC(N)=O)C1O)c1cnc[nH]1 (some centres not stated) [Bleomycin] (10000 nM),45.8%,88.7%,78.5%,78.9%,39.1%,80.9%,32.6%,65.3%,63.3%,64.3%,48.5%,53%,67.4%,124%,48.8%,37.9%,108%,74.8%,69.6%,64.7%,98.7%,82.8%,96.9%,94.2%,51.7%
CCCCCOC(=O)Nc1nc(=O)n([C@@H]2O[C@H](C)[C@@H](O)[C@H]2O)cc1F [Capecitabine] (10000 nM),107%,90.4%,81.3%,90.7%,78.6%,98.5%,108%,95.3%,109%,56%,92.8%,102%,74.5%,103%,104%,107%,102%,100%,105%,105% and 87.3%,88.5% and 90.4%,75.5% and 97.8%,–,–,88.9% and 91.6%
CO[C@H]1C[C@@H]2CC[C@@H](C)[C@@](O)(O2)C(=O)C(=O)N2CCCC[C@H]2C(=O)O[C@H]([C@H](C)C[C@@H]2CC[C@@H](O)[C@H](OC)C2)CC(=O)[C@H](C)/C=C(\C)[C@@H](O)[C@@H](OC)C(=O)[C@H](C)C[C@H](C)/C=C/C=C/C=C/1C [Sirolimus] (100 nM),66.9%,95.8%,73.4%,72.8%,73.9%,64.5%,54.1%,78.8%,59.6%,60.5%,62.4%,85.7%,57.4%,53.2%,53.4%,61.3%,64.9%,81.2%,68.8%,–,–,–,–,–,–
